In publication PMC5531494, “Target specificity, in vivo pharmacokinetics, and efficacy of the putative STAT3 inhibitor LY5 in osteosarcoma, Ewing's sarcoma, and rhabdomyosarcoma” (PLoS ONE, 2017):
Marks after values point to notes of the source that are not given here.

Columns and labels:
[1] = biological target: T1, STAT3 (Mus musculus, UniProt P42227); experiment: Western blot of pSTAT3 in K7M2 cells; assay type: cell-based, murine
T1 construct: endogenous in cells; host or cells: K7M2
Method: (§1) Murine K7M2 and human MG63.3 OS cells were treated with increasing concentrations of LY5 for 2 hrs or 7 hrs. Western blotting was performed for pSTAT3 and STAT3 as indicated above to confirm inhibition of STAT3 phosphorylation in the cell lines prior to initiation of the PuMA assay. In addition, a sulforhodamine B colorimetric assay was performed to assess the cytotoxicity of LY5 in K7M2 and MG63.3 cells as previously described.
(§2) MG63.3 and K7M2 cell lines were exposed to increasing concentrations of LY5 to determine the IC50 (A). Western blot analysis was performed to determine the dose and duration of LY5 exposure required to inhibit STAT3 phosphorylation (B-C). Serial imaging of fluorescently labeled MG63.3 and K7M2 cells was performed in ex vivo LY5 treated lung sections (D). Metastatic burden was quantified by evaluation of the percent tumor burden (mean normalized fluorescent area). Data are reported as the mean ± standard deviation. In MG 63.3 experiment, p < 0.0001 Kruskal-Wallis test, p < 0.05 10 μM vs control at days 7, 14, and 21, 10 μM vs 1 μM at days 7, 14, and 21, 50 μM vs control at days 7, 14, and 21, and 50 μM vs 10 μM at days 7, 14, and 21 post-test Dunn. In K7M2 experiment, p < 0.0001 Kruskal-Wallis test, p < 0.05 10 μM vs control at days 14 and 21, 10 μM vs 0.1 μM at days 14 and 21, and 10 μM vs 1 μM at days 14 and 21, post-test Dunn.

[2] = system: OS-17; experiment: Subcutaneous xenograft study; assay type: in vivo, mice; details: OS-17, 10 mg/kg daily for 28 days
Method: (§3) C.B-17SC scid^-/- female mice (Taconic Farms, Germantown NY), were used to propagate subcutaneously implanted tumors. All mice were maintained under barrier conditions and experiments were conducted using protocols and conditions approved by the institutional animal care and use committee at University of Texas Health Science Center at San Antonio. Ten mice were used in each control or treatment group. Tumor volumes (cm^3) were determined and responses were determined using three activity measures as previously described.
(§4) The data were analyzed by using GraphPad Prism software (GraphPad Software, Inc., San Diego, CA). Data are presented as mean ± standard deviation. Data were analyzed by one-way analysis of variance (ANOVA), and Tukey’s post-test was used to assess differences between groups. Differences were considered statistically significant at p < 0.05. For in vivo xenograft models, an event was defined as four times the tumor volume at baseline similar to the PPTP criteria. The probabilities of time-to-event among groups were compared using log-rank test. The anti-tumor efficacy of LY5 was analyzed by using the statistical pipeline developed in PPTP [27].

[3] = system: Rh10; experiment: Subcutaneous xenograft study; assay type: in vivo, mice; details: Rh10, 10 mg/kg daily for five days for four consecutive weeks
Method: as §3, §4

[4] = system: Rh36; experiment: Subcutaneous xenograft study; assay type: in vivo, mice; details: Rh36, 10 mg/kg daily for 28 days
Method: as §3, §4

[5] = system: MG63.3 cells; experiment: Sulforhodamine B cytotoxicity / cell viability assay; assay type: cell-based; details: Homo sapiens, MG-63.3
Method: as §1, §2

[6] = system: ES and OS cells; experiment: Alamar Blue cell viability assay, ES and OS panel; assay type: cell-based; details: Homo sapiens; range over ES and OS cells
Method: Sarcoma cell lines were seeded in 24-well plates in 1X RPMI medium containing 10% fetal bovine serum. Cells were then incubated with DMSO (control) or concentrations of LY5 ranging from 10 nM to 10 μM for 96 hrs. At the end of the incubation period, Alamar Blue (Invitrogen, Carlsbad, CA) was added to cells at one-tenth the volume of the cell culture medium and incubated for 3 hrs at 37° C in the dark. Fluorescence was then measured at an excitation/emissions wavelength of 570/590 nm and emission wavelength of 590 nm.
Fig 2 Biologic activity of LY5 in sarcoma cell lines. Dose response curves for LY5: RMS cell lines (RH30, RD, JR-1), ES cell lines (ES-3, ES-6, ES-7, ES-8), and an OS cell line (OS-17) were treated with LY5 (concentrations ranging from 10 nM to 10 μM) for 96 hours. Cell viability was determined using Alamar Blue staining. IC50 values are indicated for each cell line. Analyses were performed in triplicate and data are plotted as means ± standard deviation.

[7] = system: OS-1; experiment: Subcutaneous xenograft study; assay type: in vivo, mice; details: OS-1, 40 mg/kg twice per day for five days for four consecutive weeks
Method: as §3
as §4, with “The probabilities of time-to-event among groups were compared using log-rank test.” left out
Fig 6 Effects of LY5 are not mediated via STAT3 inhibition. […] After 72 hours of transfection, cells were harvested and analyzed for total (T) STAT3 and GAPDH protein expression by immunoblotting. […] Cell viability was then determined using Alamar Blue staining. […]

T1 sequence (P42227 whole entry): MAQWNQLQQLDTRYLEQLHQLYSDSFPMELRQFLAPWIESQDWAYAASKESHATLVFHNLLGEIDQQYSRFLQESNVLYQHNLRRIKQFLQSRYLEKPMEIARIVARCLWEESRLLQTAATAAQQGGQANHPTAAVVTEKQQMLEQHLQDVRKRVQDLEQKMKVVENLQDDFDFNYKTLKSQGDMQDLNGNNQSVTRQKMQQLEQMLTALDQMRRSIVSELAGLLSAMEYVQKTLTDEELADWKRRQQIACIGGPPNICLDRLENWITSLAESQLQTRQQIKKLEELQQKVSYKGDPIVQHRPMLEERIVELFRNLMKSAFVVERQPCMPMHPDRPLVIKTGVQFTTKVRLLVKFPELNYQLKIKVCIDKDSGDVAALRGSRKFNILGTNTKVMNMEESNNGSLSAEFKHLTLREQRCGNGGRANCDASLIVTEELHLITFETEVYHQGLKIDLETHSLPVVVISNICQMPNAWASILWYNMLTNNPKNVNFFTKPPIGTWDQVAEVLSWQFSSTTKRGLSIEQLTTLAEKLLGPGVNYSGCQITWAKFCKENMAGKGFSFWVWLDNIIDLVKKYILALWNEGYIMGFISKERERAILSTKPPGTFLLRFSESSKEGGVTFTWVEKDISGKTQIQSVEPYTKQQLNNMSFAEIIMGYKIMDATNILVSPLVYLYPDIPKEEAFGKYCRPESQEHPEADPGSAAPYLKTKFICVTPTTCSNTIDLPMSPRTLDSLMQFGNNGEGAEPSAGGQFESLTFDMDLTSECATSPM

For `NS(=O)(=O)c1cccc2c1C(=O)C=C(Nc1cccnc1)C2=O` [LY5, 5,8-dioxo-6-(pyridin-3-ylamino)-5,8-dihydronaphthalene-1-sulfonamide], the “concentration for complete inhibition of STAT3 in vitro” value ([1]; K7M2) was 10 µM, the “exposure time for effective inhibition of STAT3 phosphorylation” value ([1]; K7M2, 1 μM LY5) was 4 h and the “concentration that decreased STAT3 phosphorylation” value ([1]; K7M2, 2 hrs treatment) was 1 µM. For the same compound, the “Event-free survival (Treatment/Control)” value [2] was 1.15, the “Group Response” value [2] was “PD1 (Progressive disease 1, <50% tumor growth inhibition (TGI))” and the “Median day to event” value [2] was 19.7 days. The “Survival (%)” value [2] was 90%, the “Event-free survival (Treatment/Control)” value [3] was 1.11 and the “Group Response” value [3] was “PD1^e (Progressive disease 1, <50% tumor growth inhibition (TGI))”. The “Median day to event” value [3] was 18.7 days, the “Survival (%)” value [3] was 100% and the “Event-free survival (Treatment/Control)” value [4] was 0.94. The “Group Response” value [4] was “PD1 (Progressive disease 1, <50% tumor growth inhibition (TGI))”, the “Median day to event” value [4] was 16.5 days and the “Survival (%)” value [4] was 100%. For the same compound, the IC50 [5] was 3 µM, the IC50 [6] was 1.4 to 5.1 µM and the “Group Response” value [7] was “PD2^f (Progressive disease 2, >50% TGI, >25% tumor progression)”. The “Survival (%)” value [7] was 90%.
